Experimental data: patent publication US11331299B2, “Medicinal use of serrulatane diterpenes” (The University of Sydney, priority 2016, dated 2022)
Read-outs that look alike come from different tables or passages of the source.

Legend:
[1] = molecular target: JMJD3 (h) (Homo sapiens, UniProt O15054); assay: Epigenetic enzyme assay, Demethylases (KDMs); assay type: biochemical; conditions: for inhibition at 10 µM: read-out: % Inhibition of Control Values
[2] = molecular target: T1, Angiotensin Converting Enzyme (Oryctolagus cuniculus, UniProt P12822); assay: Peptidase, Angiotensin Converting Enzyme; assay type: biochemical, Rabbit; conditions: assay year 2015
T1 construct: from tissue; host or cells: rabbit lung
T1 sequence (P12822 34-1310): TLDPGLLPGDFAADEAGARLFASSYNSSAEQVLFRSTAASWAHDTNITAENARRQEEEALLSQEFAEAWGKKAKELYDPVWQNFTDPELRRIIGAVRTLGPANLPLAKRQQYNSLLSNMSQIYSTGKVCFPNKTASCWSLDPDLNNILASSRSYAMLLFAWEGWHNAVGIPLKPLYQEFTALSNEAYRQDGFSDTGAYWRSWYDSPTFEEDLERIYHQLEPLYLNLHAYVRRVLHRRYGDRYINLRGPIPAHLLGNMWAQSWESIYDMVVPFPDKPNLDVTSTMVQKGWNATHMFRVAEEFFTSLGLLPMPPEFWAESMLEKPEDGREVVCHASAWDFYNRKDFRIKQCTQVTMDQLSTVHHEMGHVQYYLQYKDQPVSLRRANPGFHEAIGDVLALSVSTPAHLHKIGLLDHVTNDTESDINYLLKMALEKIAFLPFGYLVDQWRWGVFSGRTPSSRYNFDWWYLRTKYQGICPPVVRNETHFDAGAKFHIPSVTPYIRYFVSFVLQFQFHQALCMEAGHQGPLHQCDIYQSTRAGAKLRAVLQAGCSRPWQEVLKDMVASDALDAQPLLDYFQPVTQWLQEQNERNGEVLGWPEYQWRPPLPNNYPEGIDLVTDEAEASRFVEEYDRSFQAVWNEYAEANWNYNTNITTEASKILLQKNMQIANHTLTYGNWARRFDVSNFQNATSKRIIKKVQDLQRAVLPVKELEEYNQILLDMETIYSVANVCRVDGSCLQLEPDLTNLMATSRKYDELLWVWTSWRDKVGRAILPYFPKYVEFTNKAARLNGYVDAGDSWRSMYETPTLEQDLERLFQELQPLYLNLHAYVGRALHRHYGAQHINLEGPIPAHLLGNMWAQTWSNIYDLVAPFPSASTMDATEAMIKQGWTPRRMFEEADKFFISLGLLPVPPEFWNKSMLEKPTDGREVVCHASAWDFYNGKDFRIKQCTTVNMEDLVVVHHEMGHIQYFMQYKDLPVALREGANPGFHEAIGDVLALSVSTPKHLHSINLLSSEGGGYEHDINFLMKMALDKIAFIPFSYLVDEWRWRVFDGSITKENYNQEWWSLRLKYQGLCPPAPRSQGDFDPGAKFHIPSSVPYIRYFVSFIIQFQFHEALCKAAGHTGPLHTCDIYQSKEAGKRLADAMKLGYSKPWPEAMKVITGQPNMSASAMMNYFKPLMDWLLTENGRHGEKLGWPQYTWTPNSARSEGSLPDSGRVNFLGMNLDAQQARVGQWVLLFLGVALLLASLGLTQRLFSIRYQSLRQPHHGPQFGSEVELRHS
Description: The in vitro pharmacological studies were conducted by Eurofins PanLab (Taiwan) using the parameters shown in Table 13 with respect to appropriate literature references.

[3] = molecular target: CYP3A (Homo sapiens, UniProt P08684); assay: Cytochrome P450 Inhibition (CYP panel); assay type: in vitro ADME; conditions: probe testosterone; for inhibition at 1 µM: human liver microsomes; for inhibition at 10 µM: liver microsomes
[4] = molecular target: PRDM9 (h) (Homo sapiens, UniProt Q9NQV7); assay: Epigenetic enzyme assay, Methyltransferases (MTs); assay type: biochemical; conditions: for inhibition at 10 µM: read-out: % Inhibition of Control Values
[5] = molecular target: T2, JMJD2C (h) (Homo sapiens, UniProt Q9H3R0); assay: Epigenetic enzyme assay, Demethylases (KDMs); assay type: biochemical; conditions: read-out: % Inhibition of Control Values
T2 sequence (Q9H3R0 1-1056): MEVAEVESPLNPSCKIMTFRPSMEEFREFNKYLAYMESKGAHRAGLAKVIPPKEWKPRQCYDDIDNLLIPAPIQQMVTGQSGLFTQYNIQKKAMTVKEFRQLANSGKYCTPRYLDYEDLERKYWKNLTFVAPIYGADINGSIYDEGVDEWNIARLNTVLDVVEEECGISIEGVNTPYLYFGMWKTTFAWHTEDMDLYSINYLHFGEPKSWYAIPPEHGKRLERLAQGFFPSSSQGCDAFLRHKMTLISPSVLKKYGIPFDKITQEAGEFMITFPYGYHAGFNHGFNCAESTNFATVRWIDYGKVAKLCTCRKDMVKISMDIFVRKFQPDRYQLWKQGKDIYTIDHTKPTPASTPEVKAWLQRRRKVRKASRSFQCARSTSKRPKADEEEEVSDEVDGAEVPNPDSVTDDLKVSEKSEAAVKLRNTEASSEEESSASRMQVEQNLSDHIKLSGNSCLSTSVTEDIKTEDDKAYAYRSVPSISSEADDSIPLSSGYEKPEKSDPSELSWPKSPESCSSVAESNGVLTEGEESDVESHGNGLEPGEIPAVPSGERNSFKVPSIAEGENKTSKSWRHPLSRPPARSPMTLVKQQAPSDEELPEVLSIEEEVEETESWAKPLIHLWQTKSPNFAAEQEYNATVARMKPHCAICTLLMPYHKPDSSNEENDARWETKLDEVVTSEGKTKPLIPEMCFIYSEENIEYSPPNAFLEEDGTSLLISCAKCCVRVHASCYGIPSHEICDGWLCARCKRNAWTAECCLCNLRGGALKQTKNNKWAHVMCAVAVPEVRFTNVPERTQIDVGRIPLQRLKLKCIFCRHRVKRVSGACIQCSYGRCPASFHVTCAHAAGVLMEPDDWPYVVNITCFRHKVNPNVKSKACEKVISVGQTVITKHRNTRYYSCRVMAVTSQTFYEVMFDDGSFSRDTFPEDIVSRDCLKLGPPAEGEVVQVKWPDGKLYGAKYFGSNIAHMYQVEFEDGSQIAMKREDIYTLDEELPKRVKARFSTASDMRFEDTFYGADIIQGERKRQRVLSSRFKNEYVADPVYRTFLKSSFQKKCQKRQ

[6] = molecular target: T3, TAF1(2)(h) bromodomain (Homo sapiens, UniProt P21675); assay: Epigenetic binding assay, Bromodomain; conditions: 10 μM; for inhibition at 10 µM: read-out: % Inhibition of Control Specific Binding
T3 construct: Bromodomain
T3 sequence (P21675 1519-1628 limits assumed): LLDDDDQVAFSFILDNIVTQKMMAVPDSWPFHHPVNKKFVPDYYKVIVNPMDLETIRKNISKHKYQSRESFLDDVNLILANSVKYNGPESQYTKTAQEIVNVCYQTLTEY

[7] = tested on: Hs 729; assay: OncoPanel cell proliferation assay (10-day); assay type: cell-based, human; conditions: for EC50 / GI50 / IC50: Homo sapiens, Hs 729, Soft Tissue - Sarcoma; for EC50: read-out: Cell Count EC50; for GI50: read-out: Cell Count GI50; for IC50: read-out: Cell Count IC50
[8] = CYP3A (testosterone sub.), Human liver microsomes, read-out: % Inhibition of Control Values

Chain of JMJD3 (h) (O15054 whole entry): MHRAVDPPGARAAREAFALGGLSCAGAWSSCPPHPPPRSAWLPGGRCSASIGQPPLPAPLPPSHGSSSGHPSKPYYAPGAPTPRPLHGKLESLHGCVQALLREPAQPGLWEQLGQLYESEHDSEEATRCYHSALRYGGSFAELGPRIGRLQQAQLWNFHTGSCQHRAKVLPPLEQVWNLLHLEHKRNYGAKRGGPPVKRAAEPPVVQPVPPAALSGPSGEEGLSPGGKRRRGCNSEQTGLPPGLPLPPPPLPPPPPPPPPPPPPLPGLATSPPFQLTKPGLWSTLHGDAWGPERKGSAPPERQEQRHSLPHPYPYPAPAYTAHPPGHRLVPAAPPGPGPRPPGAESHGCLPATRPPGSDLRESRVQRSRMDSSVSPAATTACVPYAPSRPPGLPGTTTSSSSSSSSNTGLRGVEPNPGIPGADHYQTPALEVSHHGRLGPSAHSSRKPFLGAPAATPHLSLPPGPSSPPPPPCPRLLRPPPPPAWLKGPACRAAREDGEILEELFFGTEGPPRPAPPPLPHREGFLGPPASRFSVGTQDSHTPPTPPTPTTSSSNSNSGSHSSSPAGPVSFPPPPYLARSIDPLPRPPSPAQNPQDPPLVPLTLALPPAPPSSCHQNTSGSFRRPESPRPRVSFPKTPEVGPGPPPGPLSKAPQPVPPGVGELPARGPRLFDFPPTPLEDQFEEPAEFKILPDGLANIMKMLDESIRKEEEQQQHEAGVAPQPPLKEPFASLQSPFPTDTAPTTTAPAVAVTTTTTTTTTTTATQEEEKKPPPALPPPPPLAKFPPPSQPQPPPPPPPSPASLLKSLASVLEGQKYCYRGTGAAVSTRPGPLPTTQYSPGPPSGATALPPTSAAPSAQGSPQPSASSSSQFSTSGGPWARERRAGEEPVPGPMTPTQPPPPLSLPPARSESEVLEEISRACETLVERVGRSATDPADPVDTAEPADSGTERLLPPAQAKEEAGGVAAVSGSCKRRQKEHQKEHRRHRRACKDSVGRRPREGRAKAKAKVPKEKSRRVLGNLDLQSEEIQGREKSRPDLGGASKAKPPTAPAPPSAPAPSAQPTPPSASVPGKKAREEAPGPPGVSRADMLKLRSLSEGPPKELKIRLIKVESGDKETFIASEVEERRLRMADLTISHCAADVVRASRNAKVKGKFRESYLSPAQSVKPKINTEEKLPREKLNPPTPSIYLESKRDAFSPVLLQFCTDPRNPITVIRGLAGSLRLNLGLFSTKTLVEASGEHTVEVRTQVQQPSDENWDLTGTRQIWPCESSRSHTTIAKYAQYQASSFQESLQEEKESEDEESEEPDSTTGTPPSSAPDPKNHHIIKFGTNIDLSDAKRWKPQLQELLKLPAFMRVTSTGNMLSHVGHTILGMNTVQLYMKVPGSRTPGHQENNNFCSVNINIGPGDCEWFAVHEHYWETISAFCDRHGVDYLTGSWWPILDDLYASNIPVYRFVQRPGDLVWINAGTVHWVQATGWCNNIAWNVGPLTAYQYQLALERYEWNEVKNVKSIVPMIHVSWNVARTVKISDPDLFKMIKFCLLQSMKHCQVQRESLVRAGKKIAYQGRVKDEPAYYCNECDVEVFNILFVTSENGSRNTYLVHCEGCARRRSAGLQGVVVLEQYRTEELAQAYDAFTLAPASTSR
Chain of PRDM9 (h) (Q9NQV7 whole entry): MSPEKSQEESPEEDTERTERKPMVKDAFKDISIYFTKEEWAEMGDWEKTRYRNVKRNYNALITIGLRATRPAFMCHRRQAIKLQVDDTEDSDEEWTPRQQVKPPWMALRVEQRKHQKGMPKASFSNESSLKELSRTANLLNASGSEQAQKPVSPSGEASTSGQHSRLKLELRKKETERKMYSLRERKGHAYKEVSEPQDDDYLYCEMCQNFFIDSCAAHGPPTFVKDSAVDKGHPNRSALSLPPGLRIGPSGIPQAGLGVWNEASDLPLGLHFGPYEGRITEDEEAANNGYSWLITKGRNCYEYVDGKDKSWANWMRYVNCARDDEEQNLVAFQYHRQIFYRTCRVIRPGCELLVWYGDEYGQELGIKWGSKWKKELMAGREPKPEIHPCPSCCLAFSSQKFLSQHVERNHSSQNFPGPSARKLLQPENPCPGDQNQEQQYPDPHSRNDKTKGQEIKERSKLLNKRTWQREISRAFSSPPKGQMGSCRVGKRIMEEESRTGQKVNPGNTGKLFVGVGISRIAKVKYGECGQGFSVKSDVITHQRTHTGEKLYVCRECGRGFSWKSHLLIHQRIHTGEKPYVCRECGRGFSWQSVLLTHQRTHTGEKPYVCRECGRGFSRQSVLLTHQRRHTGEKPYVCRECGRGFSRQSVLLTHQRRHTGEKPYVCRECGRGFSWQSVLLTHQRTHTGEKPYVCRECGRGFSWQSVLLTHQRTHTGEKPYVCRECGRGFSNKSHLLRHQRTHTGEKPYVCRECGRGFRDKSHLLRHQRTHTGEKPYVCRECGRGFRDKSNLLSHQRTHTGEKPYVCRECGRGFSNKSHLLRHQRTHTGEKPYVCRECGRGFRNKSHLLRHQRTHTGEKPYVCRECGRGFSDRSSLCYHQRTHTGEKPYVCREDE
Chain of CYP3A (P08684 2-503): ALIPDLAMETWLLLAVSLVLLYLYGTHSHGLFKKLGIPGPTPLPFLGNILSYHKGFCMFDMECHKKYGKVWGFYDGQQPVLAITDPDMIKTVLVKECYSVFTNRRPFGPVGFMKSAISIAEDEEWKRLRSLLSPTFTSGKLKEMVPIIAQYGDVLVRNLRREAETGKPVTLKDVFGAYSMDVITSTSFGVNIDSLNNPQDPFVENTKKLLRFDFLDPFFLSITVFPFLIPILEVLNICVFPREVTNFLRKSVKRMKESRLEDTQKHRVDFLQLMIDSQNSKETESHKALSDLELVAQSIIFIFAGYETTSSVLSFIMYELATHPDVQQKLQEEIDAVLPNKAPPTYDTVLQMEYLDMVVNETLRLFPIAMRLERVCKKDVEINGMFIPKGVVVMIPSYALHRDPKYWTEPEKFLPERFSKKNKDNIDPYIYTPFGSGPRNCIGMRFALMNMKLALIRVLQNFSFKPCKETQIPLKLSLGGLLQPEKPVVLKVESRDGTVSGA

Compound | inhibition at 10 µM ([1]; 10 μM) | % control response at 10 µM [2] | inhibition at 1 µM ([3]; read-out: % inhibition) | inhibition at 1 µM [3, 8] | inhibition at 10 µM [3, 8] | inhibition at 10 µM [4] | inhibition at 10 µM [5] | inhibition at 10 µM [6] | EC50 [7] | GI50 [7] | IC50 [7] | further results
CC(C)=CCC[C@H](CO)[C@@H]1CC[C@@H](C)c2c1cc(C)c(O)c2O [Compound 1, 7,8,18-trihydroxyserrulat-14-ene] | 91% | 0% | 7 to 20% | 7% | 77% | 9% | 35% | 62% | 2.77 µM | 2.67 µM | 2.78 µM | % Inhibition of Control Values ([1]; 10 μM): significant inhibitory activity; IC50 ([1]; Table 11, inhibition/concentration-response curve): 14 µM; % Inhibition of Control Specific Binding [6]: significant inhibitory activity; Relative cell count (%) Mean ([7]; Hs 729, 3.00E+00 microM): 46.0%; Relative cell count (%) Mean ([7]; Hs 729, 3.00E+01 microM): 1.0%; Relative cell count (%) Mean ([7]; Hs 729, 3.01E−01 microM): 99.4%; Relative cell count (%) Mean ([7]; Hs 729, 3.01E−02 microM): 107.0%; Relative cell count (%) Mean ([7]; Hs 729, 3.02E−03 microM): 103.0%; Relative cell count (%) Mean ([7]; Hs 729, 9.49E+00 microM): 3.2%; Relative cell count (%) Mean ([7]; Hs 729, 9.51E−01 microM): 98.9%; Relative cell count (%) Mean ([7]; Hs 729, 9.52E−02 microM): 99.9%; Relative cell count (%) Mean ([7]; Hs 729, 9.53E−03 microM): 108.7%; Relative cell count (%) Mean ([7]; Hs 729, 9.55E−04 microM): 100.6%
CC(C)=CCC[C@@H]1C(O)Oc2c(C)cc(O)c3c2[C@H]1CC[C@H]3C (some centres unmarked) [Compound 2, 5,18-epoxyserrulat-14-en-8,18-diol] | 9% | -3% | 7 to 20% | 17% | 57% | 5% | 2% | 28% | 23.3 µM | 21.8 µM | 23.3 µM | –
Nc1ncnc2c1ncn2[C@@H]1O[C@H](CSCC[C@H](N)C(=O)O)[C@@H](O)[C@H]1O [SAH] | – | – | – | – | – | – | – | – | – | – | – | IC50 ([4]; read-out: Reference IC50): 370 µM
CC(C)=CCC[C@@H]1COc2c(C)cc(O)c3c2[C@H]1CC[C@H]3C [Compound 3, 5,18-epoxy-8-hydroxyserrulat-14-ene] | 11% | -3% | – | – | – | 4% | 8% | 22% | – | – | – | –
CC(C)=CCC[C@H](C)[C@@H]1CC[C@@H](C)c2c1cc(C)c(O)c2O [Compound 4, 7,8-dihydroxyserrulat-14-ene] | – | – | 7 to 20% | 20% | 48% | – | – | – | 11.9 µM | 11.6 µM | 11.9 µM | –
